This is an account of results in patent US9707203B1, “Methods of killing bacteria and preventing or treating bacterial infection with oxidation products of safranal and methods of synthesizing safranal epoxides” (King Abdulaziz University, priority 2016, dated 2017).

The assay has as its system methicillin resistant Staphylococcus aureus (MRSA). The experiment in a line: Agar well diffusion method, antibacterial activity on Mueller Hinton media. The format is cell-based. The following applies: for Inhibition zone diameter: bacterial lawn of Staphylococcus aureus grown on Mueller Hinton media, agar well diffusion. The procedure:
The antibacterial activities of safranal, a mixture of compound 2 and compound 3 obtained by the thermal epoxidation of safranal according to scheme 1, and a mixture of compound 2 and compound 3 obtained by the photochemical epoxidation of safranal according to scheme 2 against methicillin resistant Staphylococcus aureus (MRSA) were determined by the agar well diffusion method described by Collins, C. H., P. M. Lyne, J. M. Grange, Microbial Methods., 6th Edition, Butterworhs Co. Ltd, London; 1989. p. 410, incorporated herein by reference in its entirety.
Table 1: Antibacterial Activity (Inhibition Zone Diameter) of the Mixture of Compound 2 and Compound 3 Obtained by the Thermal Epoxidation of Safranal or by the Photochemical Epoxidation of Safranal, and Safranal Against Staphylococcus aureus Grown on Mueller Hinton Media Using Agar Well Diffusion Method

Take `CC1=C(C=O)C(C)(C)CC=C1` [Safranal, 2,6,6-trimethylcyclohexa-1,3-diene-1-carbaldehyde]: the Inhibition zone diameter was found to be 27.00 mm. Besides, the “Inhibition zone in the bacterial lawn (presence/absence)” value (Staphylococcus aureus on Mueller Hinton media in a petri dish, agar well containing test substance, FIG. 3B-3D) was “presence of an inhibition zone”. Moreover, the Inhibition zone diameter (listed as safranal) is given as 27 mm.
